Assay results reported in US20220096602A1, “LIF THERAPY FOR INDUCING INTESTINAL EPITHELIAL CELL REGENERATION” (Rutgers, the State University of New Jersey, priority 2019, published 2022).

Legend:
[1] = molecular target: T1, gp130 (LIF:LIFR:gp130 complex) (Homo sapiens, UniProt P40189+P42702); details: after binding to LIFR; cited from earlier work
T1 sequence (P40189 23-918): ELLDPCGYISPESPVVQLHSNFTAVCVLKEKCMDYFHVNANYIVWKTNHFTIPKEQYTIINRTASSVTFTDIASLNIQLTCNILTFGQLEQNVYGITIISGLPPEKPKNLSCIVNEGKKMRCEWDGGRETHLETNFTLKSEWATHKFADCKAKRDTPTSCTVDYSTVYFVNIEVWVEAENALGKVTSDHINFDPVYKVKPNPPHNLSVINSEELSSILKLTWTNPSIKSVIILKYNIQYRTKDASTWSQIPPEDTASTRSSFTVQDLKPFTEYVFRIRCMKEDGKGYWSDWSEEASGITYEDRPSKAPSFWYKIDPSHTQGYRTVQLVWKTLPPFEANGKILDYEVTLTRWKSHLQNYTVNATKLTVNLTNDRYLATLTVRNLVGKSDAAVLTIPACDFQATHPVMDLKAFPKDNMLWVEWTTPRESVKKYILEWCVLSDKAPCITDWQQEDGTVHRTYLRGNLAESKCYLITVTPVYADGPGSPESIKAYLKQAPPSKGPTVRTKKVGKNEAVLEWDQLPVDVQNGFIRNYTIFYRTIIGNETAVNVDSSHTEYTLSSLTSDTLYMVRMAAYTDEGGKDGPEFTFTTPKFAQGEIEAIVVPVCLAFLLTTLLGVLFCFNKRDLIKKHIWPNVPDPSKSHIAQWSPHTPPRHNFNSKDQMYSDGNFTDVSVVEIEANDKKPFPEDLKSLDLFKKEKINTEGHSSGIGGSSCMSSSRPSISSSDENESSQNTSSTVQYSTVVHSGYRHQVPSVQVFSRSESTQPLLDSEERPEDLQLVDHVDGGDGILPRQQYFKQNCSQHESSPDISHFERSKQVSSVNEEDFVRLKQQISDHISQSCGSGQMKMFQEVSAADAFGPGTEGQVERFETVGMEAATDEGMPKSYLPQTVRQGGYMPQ
T1 sequence (P42702 45-1097): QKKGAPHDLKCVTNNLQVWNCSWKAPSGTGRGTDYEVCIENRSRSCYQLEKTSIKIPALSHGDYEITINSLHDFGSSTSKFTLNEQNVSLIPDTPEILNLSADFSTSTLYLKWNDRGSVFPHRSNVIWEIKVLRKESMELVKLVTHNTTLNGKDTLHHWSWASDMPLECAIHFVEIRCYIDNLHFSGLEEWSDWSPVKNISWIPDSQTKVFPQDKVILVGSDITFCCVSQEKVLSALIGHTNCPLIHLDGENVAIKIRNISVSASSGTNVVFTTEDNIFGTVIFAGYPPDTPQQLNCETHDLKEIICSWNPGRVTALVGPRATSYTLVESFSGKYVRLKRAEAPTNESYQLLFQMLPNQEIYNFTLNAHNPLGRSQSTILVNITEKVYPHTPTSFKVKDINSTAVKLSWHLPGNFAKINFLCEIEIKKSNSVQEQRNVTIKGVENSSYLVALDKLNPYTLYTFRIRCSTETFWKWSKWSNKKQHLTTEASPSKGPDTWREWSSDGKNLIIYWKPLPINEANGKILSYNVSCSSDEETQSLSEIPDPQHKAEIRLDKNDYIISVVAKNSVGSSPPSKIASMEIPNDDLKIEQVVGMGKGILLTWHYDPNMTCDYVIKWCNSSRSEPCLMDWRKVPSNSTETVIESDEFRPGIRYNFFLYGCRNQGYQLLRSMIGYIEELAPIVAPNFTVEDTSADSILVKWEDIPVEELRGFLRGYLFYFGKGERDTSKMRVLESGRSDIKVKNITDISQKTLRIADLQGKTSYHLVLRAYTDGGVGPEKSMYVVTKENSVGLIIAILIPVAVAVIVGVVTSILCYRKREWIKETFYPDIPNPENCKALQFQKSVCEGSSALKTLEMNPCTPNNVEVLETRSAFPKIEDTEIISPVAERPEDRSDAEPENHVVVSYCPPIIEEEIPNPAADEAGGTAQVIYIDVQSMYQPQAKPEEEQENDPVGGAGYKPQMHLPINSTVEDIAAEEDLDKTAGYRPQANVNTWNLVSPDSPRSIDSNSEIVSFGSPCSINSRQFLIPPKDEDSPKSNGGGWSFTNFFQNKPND

LIF receptor (LIFR) = molecular target: T2, LIF receptor (LIFR) (Homo sapiens, UniProt P42702); details: cited from earlier work
T2 sequence (P42702 45-1097): T1 sequence (P42702 45-1097)

[2] = test system: LIF KO intestinal organoids; assay: Intestinal organoid culture: growth and proliferation of LIF KO organoids; assay type: cell-based, mouse; details: for stem cell number in LIF KO organoids: organoids from LIF KO, Lgr5-GFP mouse crypts; for growth and proliferation of LIF KO organoids: Stattic 2 μM, SB242235 1 μM
Description: (§1) Crypt isolation and organoid culture were performed as described previously (Nan Gao's paper, 2015, Development). Crypts were isolated from the mouse small intestine. 150-200 crypts were embedded in growth factor-reduced Matrigel and cultured with mouse ENR organoid culture medium containing 1×B27 (Life Tech Gibco), 1×N2 (Life Tech Gibco), 1 mM N-acetylcysteine (Sigma), 50 ng/ml of EGF (Life Technology), 100 ng/ml of Noggin (R&D System), and 1 μg/ml of R-spondin 1 (R&D system). Recombinant mouse LIF (Millipore), wortmannin (Cell Signaling Technology) and CHIR99021 (Stemgent) were used for organoid treatment.
(§2) The size organoid was evaluated by quantify surface area of horizontal cross section of organoids acquired from multiple random non-overlapping pictures by an Olympus inverted microscope using ImageJ software. The vertical direction of expansion was not included in the calculations. n≥30/group. The percentages of budding organoids were analyzed by light microscopy at different days during organoid culture. n≥100/group.
(§3) IF staining of organoids was performed as previously described (Gao and Kaestner, 2010). In brief, organoids were fixed with 4% paraformaldehyde for 10 min, treated with 0.5% TritonX-100 for 10 min and blocked with 10% goat serum in IF buffer (0.1% BSA, 0.2% Triton X100, 0.05% Tween-20, 0.05% NaN3 in PBS) for 2 hours. Organoids were incubated with anti-Ki67 (Abcam, ab16667, 1:200 dilution) and anti-GFP (Abcam, ab6673, 1:1000 dilution) antibodies overnight at room temperature and then incubated with Alexa Fluor® 555 Goat Anti-Rabbit IgG (H+L) (Invitrogen, 1:800 dilution) and Alexa Fluor® 488 Donkey Anti-Goat IgG (H+L) (Invitrogen, 1:200 dilution), respectively to detect Ki67 and Lgr5-EGFP. Nuclei were stained with 4′, 6-diamidino-2-phenylindole (DAPI; Vector).

[3] = test system: β-catenin target genes Axin2, Ascl1, Olfm4 and Lgr5; assay: Quantitative real-time PCR of β-catenin target genes in organoids; assay type: cell-based, mouse; details: normalized with β-actin
Description: Total RNA from mice small intestine tissues or organoids was prepared by using an RNeasy kit (Qiagen). Quantitative real-time PCR assays were performed as described previously. The expression of genes was normalized with the β-actin gene. Data was obtained from 5 independent biological samples with 3 technical replicates. To investigate whether LIF regulates ISC function through upregulating the AKT signaling, WT and LIF KO organoids were treated with Wortmannin, a PI3K inhibitor that inhibits the PI3K/Akt signaling, and Capivasertib, a specific AKT inhibitor (31, 32). […] Further, we directly examined the effects of Capivasertib and SC79 on β-catenin activity by measuring the mRNA levels of its target genes in WT and LIF KO organoids. […] We further treated organoids formed by WT or LIF KO; Lgr5-GFP mouse crypts with Wortmannin, Capivasertib or SC79. […] We further examined whether blocking GSK3β can improve the growth of LIF KO organoids.

WT intestinal organoids = assay: Intestinal organoid culture: growth and proliferation of WT organoids; assay type: cell-based, mouse; details: for stem cell number in WT organoids: organoids from WT, Lgr5-GFP mouse crypts; for growth and proliferation of WT organoids: Stattic 2 μM, SB242235 1 μM; for effect on ISC functions in WT organoids: blocking STAT3 or MAPK activity
Description: as §1, §2, §3

intestinal epithelium = assay: Regeneration of intestinal epithelium after irradiation in inducible LIF-tgflox/+/Cre-ERT2 mice; assay type: in vivo, mouse; details: tamoxifen-induced LIF expression; i.p. 3 days before 12 Gy IR; 72 h after irradiation
Description: Eight-twelve-week-old male and female LIF-tg^flox/+/Cre-ERT2 mice were injected (i.p.) with tamoxifen ([…] body weight for male and […] body weight for female) to induce LIF expression 3 days before irradiation (D-3). Age- and gender-matched LIF-tg^flox/+/Cre-ERT2 mice were injected with corn oil as control on D-3. On D0 mice were subject to 12 Gy-whole-body irradiated. Mouse intestine tissue was collected at 72 h after irradiation (D3). The levels of Ki67 in intestinal epithelium were determined by immunohistochemistry (IHC) staining. n=6 in Tamoxifen treated group, n=4 in control group.

[4] = single s.c. dose, up to doses of 4 μg/kg, healthy volunteers; cited from earlier work
[5] = patients with advanced cancers; cited from earlier work

human LIF: Human canonical LIF, accession number P15018, SEQ ID NO: 1
affinity of functional signaling complex with gp130 [1]: picomolar | affinity of binding to LIFR (LIF receptor (LIFR)): low nanomolar

CCOC(=O)C1=C(N)Oc2ccc(Cl)cc2C1C(C#N)C(=O)OCC (stereo not shown) [SC79]
growth and cell proliferation of LIF KO organoids ([2]; SC79 5 μM): greatly improved | stem cell number in LIF KO organoids [2]: greatly increased | mRNA levels of Axin2, Ascl1, Olfm4 and Lgr5 in LIF KO organoids [3]: greatly increased | mRNA levels of Axin2, Ascl1, Olfm4 and Lgr5 in WT organoids [3]: less pronounced effect | growth and cell proliferation of WT organoids (WT intestinal organoids; SC79 5 μM, compared with LIF KO organoids): less pronounced effect | stem cell number in WT organoids (WT intestinal organoids): less pronounced effect

CC/C(=C(\c1ccccc1)c1ccc(OCCN(C)C)cc1)c1ccccc1 [tamoxifen]
intestinal crypt regeneration (viable crypts), higher than controls (intestinal epithelium): ~50%

COc1nccc(-c2c(-c3ccc(F)cc3)ncn2C2CCNCC2)n1 [SB242235]
growth and proliferation of LIF KO organoids [2]: did not have a significant effect | growth and proliferation of WT organoids (WT intestinal organoids): did not have a significant effect | effect on ISC functions in WT organoids (WT intestinal organoids): no obvious effect

NC1(C(=O)N[C@@H](CCO)c2ccc(Cl)cc2)CCN(c2ncnc3[nH]ccc23)CC1 [Capivasertib]
rescue effect of recombinant LIF on the growth of LIF KO organoids ([2]; inhibitor 1 μM with LIF 50 ng/ml): largely abolished | inhibitory effects on organoid growth and cell proliferation in LIF KO organoids ([2]; inhibitor 1 μM, compared with WT organoids): much less pronounced | stem cell number in LIF KO organoids [2]: much less pronounced inhibitory effect | mRNA levels of Axin2, Ascl1, Olfm4 and Lgr5 in LIF KO organoids [3]: less pronounced effect | mRNA levels of Axin2, Ascl1, Olfm4 and Lgr5 in WT organoids [3]: significantly decreased | growth of WT organoids and cell proliferation (surface area, organoid formation, Ki67+ cells) (WT intestinal organoids; inhibitor 1 μM, WT organoids): greatly inhibited | stem cell number in WT organoids (WT intestinal organoids): greatly decreased

rhLIF: Emfilermin is the term used for rhLIF produced in Escherichia coli
safety and tolerability [4]: safe and well tolerated | adverse effects on blood progenitor cells [5]: no adverse effects | hematopoietic recovery after chemotherapy [5]: normal | safety of administration [5]: safely administered

O=[N+]([O-])c1ccc2c(c1)S(=O)(=O)C=C2 [Stattic]
growth and proliferation of LIF KO organoids [2]: did not have a significant effect | growth and proliferation of WT organoids (WT intestinal organoids): did not have a significant effect | effect on ISC functions in WT organoids (WT intestinal organoids): very limited effect

Cc1c[nH]c(-c2cnc(NCCNc3ccc(C#N)cn3)nc2-c2ccc(Cl)cc2Cl)n1 [CHIR99021]
growth, cell proliferation and stem cell number of LIF KO organoids ([2]; CHIR99021 3 μM): greatly improved | growth, cell proliferation and stem cell number of WT organoids (WT intestinal organoids; CHIR99021 3 μM, compared with LIF KO organoids): much less pronounced effect
